This is an account of results in patent publication US8247530B2, “N-alkylated cyclic peptide melanocortin agonists” (Palatin Technologies, Inc., priority 2005, dated 2012).

pEC50, pKi: −log10 of the molar value. Where a SMILES comes first, the peptide text is derived from it. Bridges are numbered along the chain shown (N, C = ends). [ ]: non-standard residue; d: D form. 1Nal = N[C@@H](Cc1cccc2ccccc12)C(=O)O Some results are limits rather than exact numbers.

One assay concerns the target T1, hMC3-R (HEK-293 cells) (Homo sapiens, UniProt P41968).
T1 construct: expressed in transfected cells; host or cells: HEK-293
The assay can be described thus: cAMP functional assay for agonist/antagonist status, MC3-R. The assay is classed as cell-based. As to conditions: for agonist/antagonist status as to MC3-R: cAMP assay. The protocol: (§1) Functional evaluation of peptides at melanocortin receptors was performed by measuring the accumulation of intracellular cAMP in HEK-293 cells expressing hMC3-R, hMC4-R or hMC5-R, and in B-16 mouse melanoma cells expressing MC1-R. Cells suspended in Earle's Balanced Salt Solution containing 10 mM HEPES (pH 7.5), 5 mM MgCl2, 1 mM glutamine, 0.5% albumin and 0.3 mM 3-isobutyl-1-methyl-xanthine, a phosphodiesterase inhibitor, were plated in 96 well plates at a density of 0.5×10^5 cells per well. Cells were incubated with the test peptides in the presence or absence of NDP-α-MSH for 1 hour at 37° C. cAMP levels in the cell lysates were measured using an EIA kit (Amersham). Data analysis and EC50 values were determined using nonlinear regression analysis with Prism Graph-Pad software.
(§2) The agonist/antagonist status with respect to MC1-R, MC4-R and MC5-R of certain peptides of the invention was determined. Antagonistic activity was determined by measuring the inhibition of α-MSH-induced or NDP-α-MSH-induced cAMP levels following exposure to the peptides as in the preceding descriptions.

Assay [1] deals with T2, MC1-R (B-16 mouse melanoma cells) (Mus musculus, UniProt Q01727).
T2 construct: B-16 mouse melanoma cells (containing MC1-R); endogenous in cells; host or cells: B-16 mouse melanoma cells
T2 sequence (Q01727 whole entry): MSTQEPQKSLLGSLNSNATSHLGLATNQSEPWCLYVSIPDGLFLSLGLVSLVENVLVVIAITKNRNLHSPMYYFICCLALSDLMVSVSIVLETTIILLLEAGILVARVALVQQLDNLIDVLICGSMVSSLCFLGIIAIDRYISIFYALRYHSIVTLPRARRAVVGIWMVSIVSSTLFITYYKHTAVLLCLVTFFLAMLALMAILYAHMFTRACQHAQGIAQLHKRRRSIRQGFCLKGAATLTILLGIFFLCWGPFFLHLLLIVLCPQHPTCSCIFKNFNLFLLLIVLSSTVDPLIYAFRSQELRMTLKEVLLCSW
Briefly: cAMP functional assay for agonist/antagonist status, MC1-R. The assay is classed as cell-based. As to conditions: for agonist/antagonist status as to MC1-R: cAMP assay. On the procedure:
Data analysis and EC50 values were determined using nonlinear regression analysis with Prism Graph-Pad software.
The agonist/antagonist status with respect to MC1-R, MC4-R and MC5-R of certain peptides of the invention was determined.

The target of assay [2] is T3, MC4-R (Homo sapiens, UniProt P32245).
T3 construct: expressed in transfected cells; host or cells: HEK-293
T3 sequence (P32245 whole entry): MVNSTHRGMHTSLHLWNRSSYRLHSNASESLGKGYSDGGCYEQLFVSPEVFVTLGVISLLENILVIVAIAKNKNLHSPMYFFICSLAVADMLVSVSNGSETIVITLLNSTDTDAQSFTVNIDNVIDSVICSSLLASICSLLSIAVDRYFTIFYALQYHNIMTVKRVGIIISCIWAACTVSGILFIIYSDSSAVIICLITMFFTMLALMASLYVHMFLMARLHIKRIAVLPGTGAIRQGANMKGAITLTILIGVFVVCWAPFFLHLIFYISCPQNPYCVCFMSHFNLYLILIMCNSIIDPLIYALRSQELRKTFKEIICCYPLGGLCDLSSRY
Briefly: Competitive inhibition binding assay using [I125]-NDP-α-MSH, hMC4-R. As to conditions: radioligand [I125]-NDP-α-MSH, HEK-293 membranes; read-out: Ki (NDP-α-MSH) MC4-R. The protocol:
(§3) The assay tube also contained a chosen concentration of the test peptide of this invention, typically a 1 μM concentration, for determining its efficacy in inhibiting the binding of [I^125]NDP-α-MSH to the receptor.
(§4) The assay mixture was incubated for 60 minutes at 37° C., then filtered and the membranes washed three times with ice cold phosphate buffered saline. The filter was dried and counted in a gamma counter for remaining radioactivity bound to the membranes. 100% specific binding was defined as the difference in radioactivity (cpm) bound to cell membranes in the absence and presence of 1 μM NDP-α-MSH. […] Each assay was conducted in triplicate. The Ki (nM) of certain peptides of the invention were determined using similar assay protocols and testing peptides over a wider dose range.

A further assay has as its target T4, hMC4-R (HEK-293 cells) (Homo sapiens, UniProt P32245).
T4 construct: expressed in transfected cells; host or cells: HEK-293
The assay can be described thus: cAMP functional assay for agonist/antagonist status, MC4-R. As to conditions: for pEC50: cAMP accumulation; for agonist/antagonist status as to MC4-R: cAMP assay; for efficacy relative to NDP-α-MSH, MC4-R: cAMP response ratio to NDP-α-MSH. The assay is classed as cell-based. On the procedure: as §1, §2
Evaluation of the molecules to elicit a functional response in HEK-293 cells expressing hMC4-R for agonistic activity was done by measuring the accumulation of intracellular cAMP following treatment. Confluent HEK-293 cells over-expressing MC4-R receptors were detached by enzyme free cell suspension buffer. Cells were suspended in Earle's Balanced Salt Solution containing 10 mM HEPES (pH 7.5), 1 mM MgCl2, 1 mM glutamine, 0.5% albumin and 0.3 mM 3-isobutyl-1-methyl-[…]. The cells were plated in a 96 well plate at a density of 0.5×10^5 cells per well and pre-incubated for 60 minutes. The cells were then challenged with the test peptides dissolved in dimethylsulfoxide (DMSO) at a concentration range of 0.05-5000 nM in a total assay volume of 200 μL for 1 hour at 37° C. The concentration of DMSO was held at 1% in the assay mixture. NDP-α-MSH was used as the reference agonist. At the end of the incubation period the cells were disrupted by the addition of 50 μL lysis buffer from the cAMP EIA kit (Amersham). Complete rupture of the cells was ensured by pipetting the cells. cAMP levels in the cell lysates were measured after appropriate dilution using the EIA kit (Amersham) method. Data analysis and EC50 values were determined by using nonlinear regression analysis with the Prism Graph-Pad software.
A general note: cAMP levels reflect the balance of adenylyl cyclase and phosphodiesterase activity.

In assay [3] the target is T5, MC3-R (Homo sapiens, UniProt P41968).
T5 construct: expressed in transfected cells; host or cells: HEK-293
T5 sequence (P41968 whole entry): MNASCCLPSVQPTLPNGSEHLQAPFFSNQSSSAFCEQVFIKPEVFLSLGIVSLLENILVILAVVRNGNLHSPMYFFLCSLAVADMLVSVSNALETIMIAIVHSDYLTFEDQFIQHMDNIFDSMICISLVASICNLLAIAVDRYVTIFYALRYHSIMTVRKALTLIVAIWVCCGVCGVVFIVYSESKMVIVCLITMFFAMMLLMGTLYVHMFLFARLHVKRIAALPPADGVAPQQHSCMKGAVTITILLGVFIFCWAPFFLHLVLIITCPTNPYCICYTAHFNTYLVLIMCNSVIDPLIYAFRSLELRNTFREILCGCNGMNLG
Briefly: Competitive inhibition binding assay using [I125]-NDP-α-MSH, hMC3-R. As to conditions: radioligand [I125]-NDP-α-MSH, HEK-293 membranes; read-out: Ki (NDP-α-MSH) MC3-R. On the procedure: as §3, §4

For another assay, the target named is T6, hMC5-R (Homo sapiens, UniProt P33032).
T6 construct: expressed in transfected cells; host or cells: HEK-293
T6 sequence (P33032 whole entry): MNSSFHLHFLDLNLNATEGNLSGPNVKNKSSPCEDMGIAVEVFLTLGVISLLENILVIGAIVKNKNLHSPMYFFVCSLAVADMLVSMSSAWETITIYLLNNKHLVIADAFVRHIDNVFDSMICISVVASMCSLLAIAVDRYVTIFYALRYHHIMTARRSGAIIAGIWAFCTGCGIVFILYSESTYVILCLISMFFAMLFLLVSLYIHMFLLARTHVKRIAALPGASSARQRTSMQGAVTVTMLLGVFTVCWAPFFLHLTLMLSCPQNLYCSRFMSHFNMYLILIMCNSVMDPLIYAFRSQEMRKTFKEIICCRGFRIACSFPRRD
The assay can be described thus: Competitive inhibition binding assay using [I125]-NDP-α-MSH, hMC5-R. Particulars: radioligand [I125]-NDP-α-MSH, HEK-293 membranes; read-out: Ki (NDP-α-MSH) MC5-R. The protocol: as §3, §4

Assay [4] concerns the target T5, MC3-R. Briefly: Competitive inhibition Ki (AgRP), MC3-R. The assay is classed as binding. As to conditions: AgRP as competing ligand. On the procedure:
as §4

Assay [5] has as its target T3, MC4-R. Briefly: Competitive inhibition Ki (AgRP), MC4-R. The assay is classed as binding. Particulars: AgRP as competing ligand.
The target of assay [6] is T2, MC1-R (B-16 mouse melanoma cells). Briefly: Competitive inhibition binding assay using [I125]-NDP-α-MSH, MC1-R. Particulars: radioligand [I125]-NDP-α-MSH, B-16 mouse melanoma membranes. The protocol:
The assay mixture was incubated for 60 minutes at 37° C., then filtered and the membranes washed three times with ice cold phosphate buffered saline. The filter was dried and counted in a gamma counter for remaining radioactivity bound to the membranes. […] Each assay was conducted in triplicate.

[7] abbreviates: cAMP response ratio to NDP-α-MSH.

T4 sequence (P32245 whole entry): as the sequence (P32245 whole entry) above
T1 sequence (P41968 whole entry): as the sequence (P41968 whole entry) above

As a reminder, the pKi is −log10 of the Ki, conventionally taken in molar units. Usually pEC50 stands for the EC50 on a negative log10 scale, so that one unit is a factor of ten. Lower therefore signals a high EC50. Regarding `CCNC(=O)[C@@H]1CCCCNC(=O)C[C@H](NC(C)=O)C(=O)N[C@@H](Cc2c[nH]c3ccccc23)C(=O)N[C@H](Cc2ccccc2)C(=O)N[C@@H](CCCNC(=N)N)C(=O)N[C@@H](Cc2cccc3ccccc23)C(=O)N1` [Example 14, Ac-cyclo(-Asp-Trp-D-Phe-Arg-Nal 1-Lys)-NH—CH2—CH3] (Ac-DW[dF]R[1Nal]K-NHEt; lactam 1-6 (inferred)), the “agonist/antagonist status as to MC3-R” value on hMC3-R (HEK-293 cells) was “inactive”. The “agonist/antagonist status as to MC1-R” value in [1] was “inactive”. In addition, the pKi was 7.35 at MC4-R [2]; 6.05 on MC3-R [3]; under 5.70 on hMC5-R; under 5.00 at MC3-R [4]; 7.15 on MC4-R [5]; 6.78 in assay [6]. The pEC50 on hMC4-R (HEK-293 cells) was 6.16. In addition, the “agonist/antagonist status as to MC4-R” value on hMC4-R (HEK-293 cells) was “agonist (response ratio compared to NDP-α-MSH of 0.7 and above were classified as full agonists)”. Further, at hMC4-R (HEK-293 cells), the “efficacy relative to NDP-α-MSH, MC4-R” value amounted to 0.7.
Take `CC(=O)N[C@H]1CC(=O)NCCCC[C@@H](C(=O)N(C)C)NC(=O)[C@H](Cc2cccc3ccccc23)NC(=O)[C@H](CCCNC(=N)N)NC(=O)[C@@H](Cc2ccccc2)NC(=O)[C@H](Cc2c[nH]c3ccccc23)NC1=O` [Example 15, Ac-cyclo(-Asp-Trp-D-Phe-Arg-Nal 1-Lys)-N(CH3)2] (Ac-DW[dF]R[1Nal]K-NMe2; lactam 1-6 (inferred)): on hMC3-R (HEK-293 cells), the “agonist/antagonist status as to MC3-R” value is “inactive”. Further, the “agonist/antagonist status as to MC1-R” value in assay [1] was “inactive”. For the same molecule, the pKi at MC4-R [2] is 6.91; at MC3-R [3] it was 6.02; on hMC5-R it was 6.26; on MC3-R [4] it was under 5.52; at MC4-R [5] it was 6.63; in assay [6], 6.67. Moreover, on hMC4-R (HEK-293 cells), the pEC50 is 5.81. Further, the “agonist/antagonist status as to MC4-R” value on hMC4-R (HEK-293 cells) was “agonist (response ratio compared to NDP-α-MSH of 0.7 and above were classified as full agonists)”. Further, the “efficacy relative to NDP-α-MSH, MC4-R” value on hMC4-R (HEK-293 cells) turned out to be 0.9.
Consider `CCNC(=O)[C@@H]1CCCCNC(=O)C[C@H](NC(C)=O)C(=O)N[C@@H](Cc2c[nH]cn2)C(=O)N[C@H](Cc2ccccc2)C(=O)N[C@@H](CCCNC(=N)N)C(=O)N[C@@H](Cc2cccc3ccccc23)C(=O)N1` [Example 16, Ac-cyclo(-Asp-His-D-Phe-Arg-Nal 1-Lys)-NH—CH2—CH3] (Ac-DH[dF]R[1Nal]K-NHEt; lactam 1-6 (inferred)), for which the pEC50 at hMC3-R (HEK-293 cells) (cAMP accumulation) is 5.21; in assay [1] (cAMP accumulation), 5.19; on hMC4-R (HEK-293 cells), 6.30. Also, the “agonist/antagonist status as to MC3-R” value at hMC3-R (HEK-293 cells) was “agonist (response ratio compared to NDP-α-MSH of 0.7 and above were classified as full agonists)”. Besides, the “efficacy relative to NDP-α-MSH, MC3-R” value at hMC3-R (HEK-293 cells) (setting [7]) turned out to be 0.8. In addition, the “agonist/antagonist status as to MC1-R” value in [1] was “agonist (response ratio compared to NDP-α-MSH of 0.7 and above were classified as full agonists)”. For the same molecule, the “efficacy relative to NDP-α-MSH, MC1-R” value in assay [1] (setting [7]) is 0.9. In addition, the pKi on MC4-R [2] is 6.80; on MC3-R [3], 6.34; on hMC5-R, 6.03; on MC3-R [4], under 5.70; on MC4-R [5], 6.55; in assay [6], 7.74. For the same molecule, the “agonist/antagonist status as to MC4-R” value on hMC4-R (HEK-293 cells) is “agonist (response ratio compared to NDP-α-MSH of 0.7 and above were classified as full agonists)”. Besides, the “efficacy relative to NDP-α-MSH, MC4-R” value on hMC4-R (HEK-293 cells) is given as 1.1.
